{"source": "patent US10645927B2", "about": "“Antimicrobial wipe” (Carefusion 2200, Inc., priority 2015, dated 2020)", "system": "Staphylococcus aureus ATCC 29213", "experiment": "Bactericidal activity by time kill method", "assay_type": "cell-based", "details": "for Average Log: Baseline 7.123; for concentration required to deliver >3 log reduction in viable count: within 30 seconds of contact time", "experimental": "Multiple surfactants in solution formulations were tested for use with the wipes. Effects of individual excipients such as phosphate buffer, polysorbate 20, nonoxynol-9, Cremophor® RH-40, dimethicone, and combinations of these products were investigated to determine the possibility of adverse effects on the antimicrobial efficacy of octenidine dihydrochloride. Bactericidal activities of octenidine dihydrochloride alone and in combinations with various excipients (Table 11) were tested by a time kill method using Staphylococcus aureus ATCC 29213 as test organism (Table 12).\nNeutralizing effects of two similar surfactants, 0.5% Cremophor® RH40 and 0.5% polysorbate 20, on the bactericidal activity of octenidine dihydrochloride were tested using the Staphylococcus aureus ATCC 29213 as test organism (Table 13 and 14).", "key": {"[1]": {"details": "OCT 20 PPM, 0.5% Cremophor ® RH40, 30 seconds"}, "[2]": {"details": "OCT 20 PPM, 0.5% Polysorbate 20, 30 seconds"}, "[3]": {"details": "OCT 20 PPM, Aqueous, 30 seconds"}, "[4]": {"details": "OCT 100 PPM, 0.5% Cremophor ® RH40, 30 seconds"}, "[5]": {"details": "OCT 100 PPM, 0.5% Polysorbate 20, 30 seconds"}, "[6]": {"details": "OCT 100 PPM, Aqueous, 30 seconds"}, "[7]": {"details": "OCT 500 PPM, 0.5% Cremophor ® RH40, 30 seconds"}, "[8]": {"details": "OCT 500 PPM, 0.5% Polysorbate 20, 30 seconds"}, "[9]": {"details": "OCT 500 PPM, Aqueous, 30 seconds"}, "[10]": {"details": "OCT 4000 PPM, Full base formulation with Cremophor ® RH40"}, "[11]": {"details": "OCT 4000 PPM, Full base formulation with Polysorbate 20 (Table 13)"}}, "note": "Counter-ions that a name gives are not always drawn. Marks after values point to notes of the source that are not given here.", "data": [{"smiles": "CCCCCCCCN=c1ccn(CCCCCCCCCCn2ccc(=NCCCCCCCC)cc2)cc1", "note": "[OCT, octenidine dihydrochloride]", "values": [{"measurement": "Log Reduction", "setting": "OCT 2 PPM in 0.1% Nonoxynol-9 in water, 30 seconds", "result": 1.52}, {"measurement": "Log Reduction", "setting": "OCT 2 PPM in 0.25% Dimethicone in water, 30 seconds", "result": 1.17}, {"measurement": "Log Reduction", "setting": "OCT 2 PPM in 1.5% Polysorbate 20 in water, 30 seconds", "result": 0.30}, {"measurement": "Log Reduction", "setting": "OCT 2 PPM in Full base formulation with Nonoxynol-9 and Polysorbate 20 (Table 11), 30 seconds", "result": 0.29}, {"measurement": "Log Reduction", "setting": "OCT 2 PPM in Full base formulation with Polysorbate 20 (Table 11), 30 seconds", "result": 0.04}, {"measurement": "Log Reduction", "setting": "OCT 2 PPM in Phosphate Buffered Water, pH 6.0, 30 seconds", "result": 1.39}, {"measurement": "Log Reduction", "setting": "OCT 2 PPM in Water, contact time 30 seconds", "result": 3.41}, {"measurement": "Log Reduction", "setting": "OCT 20 PPM in 0.1% Nonoxynol-9 in water, 30 seconds", "result": 2.94}, {"measurement": "Log Reduction", "setting": "OCT 20 PPM in 0.25% Dimethicone in water, 30 seconds", "result": 1.41}, {"measurement": "Log Reduction", "setting": "OCT 20 PPM in 1.5% Polysorbate 20 in water, 30 seconds", "result": 0.57}, {"measurement": "Log Reduction", "setting": "OCT 20 PPM in Full base formulation with Nonoxynol-9 and Polysorbate 20 (Table 11), 30 seconds", "result": 0.58}, {"measurement": "Log Reduction", "setting": "OCT 20 PPM in Full base formulation with Polysorbate 20 (Table 11), 30 seconds", "result": 0.35}, {"measurement": "Log Reduction", "setting": "OCT 20 PPM in Phosphate Buffered Water, pH 6.0, 30 seconds", "result": 2.87}, {"measurement": "Log Reduction", "setting": "OCT 20 PPM in Water, contact time 30 seconds", "result": 3.78}, {"measurement": "Average Log Reduction", "setting": "[1]", "result": 0.740}, {"measurement": "Percent Reduction", "setting": "[1]", "result": 81.808, "unit": "%"}, {"measurement": "Average Log", "setting": "[1]", "result": 6.383}, {"measurement": "Average Log Reduction", "setting": "[2]", "result": 0.795}, {"measurement": "Percent Reduction", "setting": "[2]", "result": 83.979, "unit": "%"}, {"measurement": "Average Log", "setting": "[2]", "result": 6.327}, {"measurement": "Average Log Reduction", "setting": "[3]", "result": 5.123}, {"measurement": "Percent Reduction", "setting": "[3]", "result": 99.999, "unit": "%"}, {"measurement": "Average Log", "setting": "[3]", "result": 2.000}, {"measurement": "Log Reduction", "setting": "OCT 100 PPM in 0.1% Nonoxynol-9 in water, 30 seconds", "result": 4.69}, {"measurement": "Log Reduction", "setting": "OCT 100 PPM in 0.25% Dimethicone in water, 30 seconds", "result": 1.67}, {"measurement": "Log Reduction", "setting": "OCT 100 PPM in 1.5% Polysorbate 20 in water, 30 seconds", "result": 1.01}, {"measurement": "Log Reduction", "setting": "OCT 100 PPM in Full base formulation with Nonoxynol-9 and Polysorbate 20 (Table 11), 30 seconds", "result": 0.60}, {"measurement": "Log Reduction", "setting": "OCT 100 PPM in Full base formulation with Polysorbate 20 (Table 11), 30 seconds", "result": 0.49}, {"measurement": "Log Reduction", "setting": "OCT 100 PPM in Phosphate Buffered Water, pH 6.0, 30 seconds", "result": 4.78}, {"measurement": "Log Reduction", "setting": "OCT 100 PPM in Water, contact time 30 seconds", "result": 4.65}, {"measurement": "Average Log Reduction", "setting": "[4]", "result": 1.472}, {"measurement": "Percent Reduction", "setting": "[4]", "result": 96.624, "unit": "%"}, {"measurement": "Average Log", "setting": "[4]", "result": 5.651}, {"measurement": "Average Log Reduction", "setting": "[5]", "result": 1.205}, {"measurement": "Percent Reduction", "setting": "[5]", "result": 93.767, "unit": "%"}, {"measurement": "Average Log", "setting": "[5]", "result": 5.917}, {"measurement": "Average Log Reduction", "setting": "[6]", "result": 5.123}, {"measurement": "Percent Reduction", "setting": "[6]", "result": 99.999, "unit": "%"}, {"measurement": "Average Log", "setting": "[6]", "result": 2.000}, {"measurement": "Log Reduction", "setting": "OCT 500 PPM in 0.1% Nonoxynol-9 in water, 30 seconds", "result": 5.12}, {"measurement": "Log Reduction", "setting": "OCT 500 PPM in 0.25% Dimethicone in water, 30 seconds", "result": 2.12}, {"measurement": "Log Reduction", "setting": "OCT 500 PPM in 1.5% Polysorbate 20 in water, 30 seconds", "result": 1.12}, {"measurement": "Log Reduction", "setting": "OCT 500 PPM in Full base formulation with Nonoxynol-9 and Polysorbate 20 (Table 11), 30 seconds", "result": 1.40}, {"measurement": "Log Reduction", "setting": "OCT 500 PPM in Full base formulation with Polysorbate 20 (Table 11), 30 seconds", "result": 0.76}, {"measurement": "Log Reduction", "setting": "OCT 500 PPM in Phosphate Buffered Water, pH 6.0, 30 seconds", "result": 5.12}, {"measurement": "Log Reduction", "setting": "OCT 500 PPM in Water, contact time 30 seconds", "result": 5.12}, {"measurement": "Average Log Reduction", "setting": "[7]", "result": 5.123}, {"measurement": "Percent Reduction", "setting": "[7]", "result": 99.999, "unit": "%"}, {"measurement": "Average Log", "setting": "[7]", "result": 2.000}, {"measurement": "Average Log Reduction", "setting": "[8]", "result": 3.080}, {"measurement": "Percent Reduction", "setting": "[8]", "result": 99.917, "unit": "%"}, {"measurement": "Average Log", "setting": "[8]", "result": 4.043}, {"measurement": "Average Log Reduction", "setting": "[9]", "result": 5.123}, {"measurement": "Percent Reduction", "setting": "[9]", "result": 99.999, "unit": "%"}, {"measurement": "Average Log", "setting": "[9]", "result": 2.000}, {"measurement": "Log Reduction", "setting": "OCT 1000 PPM in Full base formulation with Nonoxynol-9 and Polysorbate 20, total kill, value is limit of detection", "result": "≥ 3.94*"}, {"measurement": "Log Reduction", "setting": "OCT 2000 PPM in Full base formulation with Nonoxynol-9 and Polysorbate 20, total kill, value is limit of detection", "result": "≥ 4.14*"}, {"measurement": "Log Reduction", "setting": "OCT 4000 PPM in Full base formulation with Nonoxynol-9 and Polysorbate 20, total kill, value is limit of detection", "result": "≥ 4.14*"}, {"measurement": "Average Log Reduction", "setting": "[10]", "result": 4.123}, {"measurement": "Percent Reduction", "setting": "[10]", "result": 99.992, "unit": "%"}, {"measurement": "Average Log", "setting": "[10]", "result": 3.000}, {"measurement": "Average Log Reduction", "setting": "[11]", "result": 4.123}, {"measurement": "Percent Reduction", "setting": "[11]", "result": 99.992, "unit": "%"}, {"measurement": "Average Log", "setting": "[11]", "result": 3.000}, {"measurement": "percent reduction in viable count at 2 ppm", "setting": "Staphylococcus aureus, ATCC29213, octenidine dihydrochloride alone, 2 PPM, contact time of 30 seconds", "result": "> 99.9", "unit": "%"}, {"measurement": "concentration required to show 99.9% reduction in viable count", "setting": "dissolved in pH 6.0 phosphate buffered water", "result": "> 20", "unit": "PPM"}, {"measurement": "microbicidal activity in the full base formulation", "setting": "higher than 1000 PPM of octenidine dihydrochloride, full base formulation of Table 11", "result": "rapidly microbicidal"}, {"measurement": "concentration required for 99.9% reduction relative to the concentration in water", "setting": "pH 6.0 phosphate buffered water vs water", "result": "> 10", "unit": "times"}, {"measurement": "concentration required to deliver >3 log reduction in viable count", "setting": "with 0.5% Cremophor® RH40", "result": 500, "unit": "PPM"}, {"measurement": "concentration required to deliver >3 log reduction in viable count", "setting": "with 0.5% polysorbate 20", "result": 500, "unit": "PPM"}]}]}
